Data: BindingDB's records for PubMed 35598527 (Universidade Federal De Minas Gerais, 2022)

Test: Antagonist activity at pig cerebral cortex CCK2 […] by Packbard-Cobra counter analysis

Row | IC50 | Compound
1 | 85 nM | CC(C)CNC1=C(Cl)C(=O)OC1OCc1ccccc1 (configuration not stated)
2 | 80 nM | C#CCOC1OC(=O)C(Cl)=C1N(CC(C)C)C1CCCCC1 (configuration not stated)
